Columns and labels:
Type in all cases: in vivo, pig
[1] = test system: slaughter pigs; assay: Cooking loss of pork chops; conditions: 7 days at 2° C., LS mean ± SEM
Source text: (§1) Twenty-one slaughter pigs ([Yorkshire×Swedish Landrace]×Hampshire) were raised on a commercial diet. Pigs were randomly assigned to one of three groups (n=7). The groups represented three feeding strategies, namely a Control group which received a standardized diet comprising 0.27% total methionine, and both a DLM and HMTBA group, receiving the same diet as the Control group throughout the feeding period, apart from the fact that they were fed a higher level of methionine (1.1% total methionine) during a seven day finishing period immediately prior to slaughter. The supplements were given in two forms, either as D L-methionine (DLM) or DL-2-hydroxy-4-methylthiobutanoic acid (HMTBA).
Pigs were slaughtered at a commercial slaughter house in Sweden after a resting time of 5 hours. At 45 minutes post mortem, pH (Knick portamess 751 pH-meter with an Ingold LOT glass electrode, Tech Instrumentering ApS, Denmark) and temperature (digital thermometer, Weber, Stephen Nordic, Denmark) were measured in the m. Longissimus dorsi (LD) at the level of the 10th rib. At 48 hours post mortem, the entire back was dissected from the carcass and transported under controlled conditions to the University of Copenhagen for further measurements.
(§2) Pork chops were cut perpendicular to the long axis of each LD muscle. Six 3 cm thick pork chops was sliced from each LD. Three were vacuum packed and three were packed in a high-oxygen modified atmosphere. The chops were placed in plastic trays (M71-43A white/PS; 195×144×43 mm in dimension; Frch Plast, Denmark) and placed in vacuum bags (EM-628862; O2 transmission rate=40-50 cm^3/m^2/24 h/bar, CO2 transmission rate=150 cm^3/m^2/24 h/bar, water-vapour transmission rate=2.6 g/m^2/24 h; LogiCon Nordic A/S, Denmark). The ambient air was removed from all vacuum bags using a vacuum machine (type, manufacturer, country). The bags intended for […] were first filled with a gas mixture (80% oxygen/20% carbon dioxide) before being sealed completely, whereas the bags intended for MAP were only partially sealed. […] (until 9 days post mortem). The gas composition was checked (CheckMate 9900, PBI Dansensor, Denmark) before packaging and again prior to opening, at the end of the simulated display period in order to check for leakage. The oxygen-enriched environment was well maintained (83.4%) throughout the display period for all MA packages.
Storage loss was determined as the weight loss percentage at the end of the display period (9 days post mortem) relative to the weight at the day of packaging (two days post mortem). The cooking loss was determined as the weight loss percentage between the pork chops before and after cooking. The results are given as the mean of the three pork chops in each meat pack.

[2] = test system: pigs; assay: Post mortem pH and temperature in M. longissimus dorsi, Example 2
Description: The pigs were slaughtered at a commercial slaughter house in Sweden after a resting time of 5 h. At 45 minutes post mortem, pH (Knick portamess 751) and temperature (digital thermometer, Weber) were measured in the M. longissiumus dorsi at the level of the 10th rib. At 48 h post mortem, the entire loins were dissected from the carcasses and transported to the University of Copenhagen for further measurements. Ultimate pH was measured, as well as colour by Minolta L*a*b*. Dry matter content was determined by drying muscle samples at 105° C. for 24 h. Slices of 3 cm thickness were cut, measured and vacuum packed before being stored for a further 7 days at 2° C. At the end of the storage period samples were heated to an internal temperature of 75° C. After being cooled down, samples were stored cold at 2° C. until they were cut into slabs of 1 cm×1 cm×2.5 cm size for shear force measurement. For each animal, 8 specimens were measured and the mean maximum load was used for further analysis.

[3] = test system: slaughter pigs; assay: Warner-Bratzler shear force (WBSF), instrumental hardness; conditions: 7 days at 2° C., LS mean ± SEM
Description: In Example 1 twenty-one pigs were randomly assigned to one of three feeding groups (n=7). The control group received a standardized diet only. The DLM and HMTBA groups received the standardized diet plus a high-methionine supplement (either DLM (i.e. […] At 48 h post mortem, 3 cm thick pork chops were either vacuum packed or sealed in a modified atmosphere (MA; 80% O2) and stored for an additional 7 days at 2° C. Instrumental hardness was measured using the Warner-Bratzler shear force (WBSF; Newton) method. Protein oxidation was measured as the loss of free thiol groups in proteins (nmol thiol per mg protein) using Ellman's reagent. Lipid oxidation was measured as the increase in 2-thiobarbituric acid reactive substances (TBARS; mg malondialdehyde per kg meat). Twenty-one slaughter pigs ([Yorkshire×Swedish Landrace]×Hampshire) were raised on a commercial diet. Pigs were randomly assigned to one of three groups (n=7). […] Pork chops were cut perpendicular to the long axis of each LD muscle. Six 3 cm thick pork chops was sliced from each LD. Three were vacuum packed and three were packed in a high-oxygen modified atmosphere. The chops were placed in plastic trays ([…]-43A white/PS; 195×144×43 mm in dimension; Frch Plast, Denmark) and placed in vacuum bags (EM-628862; […] The ambient air was removed from all vacuum bags using a vacuum machine (type, manufacturer, country). […] (until 9 days post mortem). The gas composition was checked (CheckMate 9900, PBI Dansensor, Denmark) before packaging and again prior to opening, at the end of the simulated display period in order to check for leakage. The oxygen-enriched environment was well maintained (83.4%) throughout the display period for all MA packages. Instrumental hardness was measured using the Warner-Bratzler shear force (WBSF) method. In short, at the end of the display period fresh samples were heated in a water bath in an oven (type, manufacturer, country). The temperature rise was monitored for one sample and the remaining samples were given the time to reach an internal temperature of 75° C. plus five minutes. The samples were cooled down before cores of 1 cm×1 cm×2.5 cm were excised for shear force analysis.

[4] = test system: slaughter pigs; assay: Instrumental meat colour (CIE L*a*b*), Example 1; conditions: LS mean ± SEM
Source text: as §1, §2
Instrumental meat colour was measured with a Minolta Chroma Meter (CR-300; D65 and 2° observer angle, 8 mm diameter measuring area; Minolta, Japan). Before packaging, as described previously, colour recordings of the pork chops was carried out. At the end of the display period, the pork chops were allowed to bloom for at least 30 min at 4±2° C. once they had been removed from the vacuum bags. Colour measurements followed the CIE colour convention, where the three fundamental outputs are L*, a* and b*. L* is lightness on a scale of 0 (all light absorbed; black) to 100 (all light reflected; white); a* spans from +60 (red) to −60 (green) and b* spans from +60 (yellow) to −60 (blue). The saturation index, also known as chroma, was calculated as the square root of a*^2+b*^2 (MacDougall, 1977). Three recordings were made on each pork chop, and the mean value was used for statistical analysis.

[5] = Slaughter house, 45 min post mortem
[6] = Initial (2 days post mortem), square root of a*^2+b*^2
[7] = MAP 80% O2/20% CO2 (9 days post mortem)

CSCCC(O)C(=O)O (racemic) [HMTBA, 2-hydroxy-4-(methylthio) butanoic acid]
Cooking loss ([1]; MAP (80% O2 + 20% CO2)): 18.49 ± 1.73 ^A g
Cooking loss ([1]; Vacuum): 21.35 ± 1.73 ^A g
pH ([2]; Laboratory, 2 days post mortem): 5.40
Temperature [2, 5]: 39 °C
pH [2, 5]: 6.20
Instrumental hardness, WBSF values ([3]; MAP (80% O2 + 20% CO2)): 43.64 ± 3.65 ^A, B N
Instrumental hardness, WBSF values ([3]; Vacuum): 30.55 ± 3.65 ^C, D N
Light reflection (L*) ([4]; Initial (2 days post mortem)): 56.89 ± 1.25 ^A, B
Redness (a*) ([4]; Initial (2 days post mortem)): 7.58 ± 0.58 ^B, D
Yellowness (b*) ([4]; Initial (2 days post mortem)): 3.71 ± 0.46 ^C
Saturation index [4, 6]: 8.46 ± 0.67 ^C, D, E
Redness (a*) [4, 7]: 7.43 ± 0.59 ^B, D
Saturation index [4, 7]: 9.81 ± 0.69 ^B, C, D, E
Yellowness (b*) [4, 7]: 6.35 ± 0.49 ^B

CSCCC(N)C(=O)O (racemic) [DLM, DL-methionine]
Cooking loss ([1]; MAP (80% O2 + 20% CO2)): 15.82 ± 1.86 ^A g
Cooking loss ([1]; Vacuum): 21.52 ± 1.86 ^A g
pH ([2]; Laboratory, 2 days post mortem): 5.50
Temperature [2, 5]: 39 °C
pH [2, 5]: 6.10
Instrumental hardness, WBSF values ([3]; MAP (80% O2 + 20% CO2)): 38.58 ± 3.65 ^A, B N
Instrumental hardness, WBSF values ([3]; Vacuum): 28.80 ± 3.65 ^D N
Light reflection (L*) ([4]; Initial (2 days post mortem)): 55.75 ± 1.25 ^B
Redness (a*) ([4]; Initial (2 days post mortem)): 6.69 ± 0.58 ^C, D
Yellowness (b*) ([4]; Initial (2 days post mortem)): 2.92 ± 0.46 ^C
Saturation index [4, 6]: 7.33 ± 0.67 ^E
Redness (a*) [4, 7]: 7.83 ± 0.59 ^A, B, C, D
Saturation index [4, 7]: 10.55 ± 0.69 ^A, B, C, D
Yellowness (b*) [4, 7]: 7.10 ± 0.49 ^A, B

Reference: US20140314904A1, “PRE-SLAUGHTER DIET INCLUDING METHIONINE” (ADISSEO FRANCE S.A.S., priority 2011, published 2014)
